Laboratory results from a melting point compilation (Tetko et al.; mined from patent text by program, amines drawn as free bases though some values may be those of a salt).

Row | melting point [°C] | Structure (SMILES)
1 | 135 to 137 | CC(C)Cn1c(=O)n(C)c(=O)c2c1ncn2CCCO
2 | > 250 | O=C(O)c1cc(Br)c2ccccn2c1=O
3 | 170 to 171 | CCOC(=O)c1cn(C2CC2)c2nc(Cl)c(F)c(C)c2c1=O
4 | 118 to 121 | COC(=O)c1cc(C(=O)OC)cc(N(C)C)c1
5 | 152 | Cc1cc([N+](=O)[O-])ccc1N=C1SC(=O)CN1CC(C)C
6 | 186 | O=C(O)CCCC(=O)N[C@@H](Cc1ccccc1)C(=O)NCCCCNc1ncccn1
7 | 175 to 176 | Nc1ccc(-c2cccc([N+](=O)[O-])c2)cc1O
8 | 235 to 237 | COc1cc2cncnc2cc1OC
9 | 128 to 130 | CCNc1cccnc1N1CCN(C(=O)c2ccc(C(=O)NC(C)(C)CO)cn2)CC1
10 | 115 to 116 | COC(=O)CCc1nc(-c2ccc(O)cc2)c(-c2ccccc2)o1
11 | 118 to 122 | O=c1[nH]c2cscc2c(=O)n1CCCCCN1CCC(=C(c2ccc(F)cc2)c2ccc(F)cc2)CC1
12 | 124 to 126 | CCCCc1nn(-c2cc([N+](=O)[O-])ccc2Cl)c(=O)n1Cc1ccc(-c2ccccc2S(=O)(=O)NC(C)(C)C)cc1F
13 | 83 | CCCCCCCCCCCCCC(=O)c1cc(O)c(C)cc1O
14 | 167 to 168 | COc1ccc2c(C(C)C(=O)O)cnc(Cl)c2c1 (stereo unspecified)
15 | 220 | CCn1nc(C)c2c1C(=O)NCC(c1ccccc1O)=N2
16 | 89 to 90 | COC(=O)COc1c(CCC(C)C)c(OC)cc(OC)c1C(=O)CCc1ccc(O)c(OC)c1
17 | 201 to 203 | Cn1c(=O)sc2cc(N3C[C@H](C(=O)NCCF)OC3=O)ccc21
18 | 163 to 165 | COc1c(C)cnc(Cn2cc(C#CCC(C)(C)O)c3c(Cl)nc(N)nc32)c1C
19 | 117 to 120 | CC(O)CNC(=O)NC(=O)C(CC1CCCC1)c1ccc(Cl)c(Cl)c1 (stereo unspecified)
20 | 140 | Cc1c(NC(=O)c2ccc(OCCCCF)cc2F)ccc2cc(CN3CCCC3)cnc12

Row | melting point [°C] | Structure (SMILES)
21 | 114 | CCCCCCCCCCCCC(C(=O)NO)S(=O)(=O)c1ccc(OC)cc1 (stereo unspecified)
22 | 101 to 103 | CCOC(=O)c1cn(C(=O)OCC(C)C)c2c(COC(C)=O)cc(C)cc2c1=O
23 | 157 | CCOC(=O)c1c(Cl)c2cscc2[nH]c1=O
24 | 95 to 96 | CN1C(=O)CN(c2cccc(O)c2)NC1=O
25 | 209 | CN(C)C(=N)CCCCCCCCCCCCC(=N)N(C)C
26 | 116 to 118 | CCCC(=O)n1nc(-c2ccncc2)nc1-c1ccncc1
27 | 132 to 134 | CCCCNC(=O)NC1CCNCC1
28 | 138 to 142 | CCOC(=O)NN(C)c1cc(C)c(-c2ccc(C#N)cc2)nn1
29 | 172 to 174 | CCCCNC(=O)c1cccc(-c2ccnc3c(C(=O)c4cccs4)cnn23)c1
30 | 87 to 88 | COC(=O)c1cccc(OCc2ccc(Cl)c(Cl)c2)c1
31 | 226 to 228 | O=C1c2ccccc2-c2c1c1ccccc1c(=O)n2CCCCCCCCCCCCn1c2c(c3ccccc3c1=O)C(=O)c1ccccc1-2
32 | 153 to 155 | CCCCc1ncc(C(=O)OCC)c(NCc2ccc(-c3ccccc3-c3nnn[nH]3)cc2)n1
33 | 150 to 153 | CCOC(=O)C1=Cc2cc(-c3ccc(S(C)(=O)=O)cc3)ccc2OCC1
34 | 53 to 58 | CCc1ccc(C2=NC(C)(C(C)C)C(=O)N2CC=CC(=O)O)nc1 (stereo unspecified)
35 | 181 to 183 | Cc1ccc(NC(=O)Cc2ccccc2C(=O)O)cc1/C=C/c1nc(C(C)C)cs1
36 | 158 | CCOC1=NC(N)=C(C(=O)OC)C(c2cccc(Cl)c2)C1C(=O)OC (stereo unspecified)
37 | 200 to 203 | CC(C)(C)c1cc(C=C2CC(C)(C)N(C(N)=O)C2=O)cc(C(C)(C)C)c1O
38 | 104 to 106 | O=C(NCCO)c1ccc(CCCc2ccccc2CCc2ccccc2)cc1
39 | 193 to 195 | O=Cc1ccc(O)c(O)c1Cl

Further lines, the molecule ahead of its results:

Row | Structure (SMILES) | melting point [°C]
40 | O=C1Nc2ccc(C(F)(F)F)cc2C1c1ncnc2c1cnn2C1CCCC1 (stereo unspecified) | > 300
41 | O=S1(=O)N=CN(C2CC2)c2c1ccc(F)c2Cl | 147 to 148
42 | C=CC(C)(C)C(O)(COc1ccc(-c2ccccc2)cc1)Cn1ccnc1 (stereo unspecified) | 151 to 153
43 | Clc1ccc(OC2CC3CCC(C2)N3Cc2nccs2)cc1Cl (stereo unspecified) | 123 to 124
44 | CC(Oc1ccc(Oc2ncc(Cl)cc2F)cc1)C(=O)NC=C(C#N)C#N (stereo unspecified) | 129 to 131
45 | CNc1cc(-c2ccc(Cl)cc2)nn1C | 112
46 | COc1cccc(N(CCN2CCC(C(=O)c3ccc(F)cc3)CC2)C(=O)c2ccc(NC(C)=O)cc2)c1 | 146 to 152
47 | COc1ccc(N2N=C(C)C(C(=O)Nc3ccc(F)cc3)C2=O)cc1 (stereo unspecified) | 125 to 128
48 | CCn1c(=O)c(-c2c(Cl)cccc2Br)cc2cnc(Nc3ccccc3)nc21 | 210 to 214
49 | O=C1c2c(Br)ccc(Br)c2C(=O)N1CC(F)(F)C(F)(F)C(F)(F)F | 165
50 | Cc1cc2c(cc1Sc1ccc(C=O)cc1)C(C)(C)CCC2(C)C | 98 to 99
51 | CS(=O)(=O)NC1Cc2ccc(C3=NNC(=O)CC3)cc2C1 (stereo unspecified) | 218 to 220
52 | COc1ccc(C(Cc2ccccc2)C2=C(C)N=NC2=O)cc1OC1CCCC1 (stereo unspecified) | 88 to 90
53 | COc1ccc(Cl)cc1C(=O)NCCC1CCN(S(=O)(=O)NC(=O)NC2CC2)CC1 | 138 to 139
54 | COCCOc1ccc2c(c1)C1(CO2)C(=O)N(Cc2ccccn2)c2ccccc21 (stereo unspecified) | 140 to 142
55 | Nc1nc(CCCc2ccccc2)nc2nc(-c3ccco3)nn12 | 164 to 167
56 | O=C(O)COc1cc2c(c(Cl)c1Cl)C(=O)C(C1CCCC1)C2 (stereo unspecified) | 184 to 186
57 | COc1c(N2CCC(c3ccccc3CN)C2)c(F)cc2c(=O)c(C(=O)O)cn(C3CC3)c12 (stereo unspecified) | 170 to 174
58 | CON1CCN2C(=O)C(c3c(C)cc(C)cc3C)C(=O)N2CC1 | 229 to 230
59 | O=C1c2ccccc2C(=O)N1OCc1cccs1 | 130 to 131
60 | Nc1nc2n(n1)Cc1ccccc1-2 | 193 to 194

Row | Structure (SMILES) | melting point [°C]
61 | Cc1c2c(c(C(=O)c3ccc(C(C)C)cc3)c(C)c1NC(=O)CC(C)(C)C)OC(C)(C)C2 | 194 to 195
62 | CC1CNc2c([N+](=O)[O-])cnn2C1 (stereo unspecified) | 190 to 192
63 | Cc1cccc(Oc2ccc3ccc(N)nc3n2)c1 | 100
64 | NCC1(O)c2ccccc2CCc2ccccc21 | 147 to 149
65 | Nc1cc(-c2ccoc2)ccc1Nc1cccc(-n2ccnc2)c1 | 188 to 189
66 | CC(C)n1nc(-c2cc(Br)c(N)nc2-c2ccccc2)ccc1=O | 174 to 176
67 | Nc1nc(-c2nn(Cc3ccccc3F)c3ncccc23)nc(N)c1Cc1ccccc1 | 193
68 | Cc1nc[nH]c1C(=O)Nc1ccc(-n2nc(C3CC3)cc2C(F)(F)F)cc1 | 245 to 250
69 | Cc1cccc(C(=O)NC(C)C)c1NC(=O)c1cc(C(F)(F)F)nn1-c1ncccc1Cl | 194 to 196
70 | CNc1nc(C)c(-c2nc3ccccc3c(=O)n2-c2ccc(Cl)cc2)s1 | 195 to 197
71 | COc1ccc(C2CNCc3ccc(C)cc32)cc1OC (stereo unspecified) | 94 to 96
72 | O=c1nc(-c2ccnc(C3CNCCO3)c2)sc2ccccc12 (stereo unspecified) | 157 to 158
73 | COc1cc2ncc(C#N)c(Nc3ccc(F)c(Cl)c3)c2cc1NC(=O)C=CCN1CCC(O)C1 (stereo unspecified) | 215 to 220
74 | S=C(Cc1ccccc1)N1CCOCC1 | 115 to 116
75 | CC1COc2c(N3Cc4cccc(F)c4C3)c(F)cc3c(=O)c(C(=O)O)cn1c23 (stereo unspecified) | > 300
76 | Clc1ccc(NC2=Nc3ccccc3CS2)cc1Cl | 207 to 208
77 | CS(=O)(=O)Nc1ccc2c(c1)CCN(Cc1ccc3cc(NS(C)(=O)=O)ccc3n1)CC2 | 207 to 210
78 | CC(C)(C)OC(=O)N1CCC(Oc2cccc3[nH]ncc23)C1 (stereo unspecified) | 196 to 198
79 | O=C1N(Cc2ccc(C(F)F)o2)c2ccccc2C12COc1cc3c(cc12)OCCO3 (stereo unspecified) | 173 to 175
80 | COC(=O)c1ccc([C@H](C)NC(C)=O)cc1 | 125 to 127
81 | CC(C)(C)c1cc(-c2ccc([N+](=O)[O-])cc2)cc(C(C)(C)C)c1O | 157 to 160

Row | Structure (SMILES) | melting point [°C]
82 | CNS(=O)(=O)c1cc(C)ccc1C=C1c2ccccc2CCc2ccccc21 | 175
83 | Cc1c(SCc2ccc(C(C)(C)C)cc2)cnn(C(C)(C)C)c1=O | 91 to 92
84 | Cn1nnc(-c2cc(-c3ccc(F)cc3)sc2-c2ccc(F)cc2)n1 | 150 to 152
85 | COc1ccc2ncnc(N3CCCc4ccccc43)c2c1 | 98
86 | N=C(Nc1ccc2c(c1)CN1CCOCC1C2)c1cccs1 (stereo unspecified) | 190 to 194
87 | CCOc1nc(Cl)nc2cscc12 | 136 to 140
88 | O=C(O)c1cnc(Cl)nc1-c1ccccc1 | 105 to 110
89 | COc1ccc(NC(=S)C2CC2)cn1 | 79 to 83
90 | O=C(Nc1cccc(-c2ccnc3c(C(=O)c4cccs4)cnn23)c1)c1ccccc1F | 190 to 191
91 | Cc1ccc(NC(=O)c2ccc(CN3CCN(C)CC3)c(C(F)F)c2)cc1Nc1nccc(-c2cncnc2)n1 | 206 to 207
92 | COc1cc2ncnc(N3CCC(CN4CCCN(C(C)C)S4(=O)=O)CC3)c2cc1OC | 158 to 161
93 | Cc1c(SCCCSCCc2ccccc2)ccnc1CSc1ccncc1 | 48 to 50
94 | COc1cn(-c2ccc(-n3cc(Cl)cn3)cc2F)nc(-c2ccnn2-c2ccccc2)c1=O | 190 to 192
95 | Nc1cccnc1-c1ccc2[nH]nc(Nc3nccs3)c2c1 | 282 to 283
96 | O=C1CC[C@@H]([N+](=O)[O-])[C@H](c2ccccc2)N1 (relative stereo) | 174 to 175
97 | CN1CCN(C2=Nc3cc(Br)ccc3N3CCc4cc(Br)cc2c43)CC1 | 215 to 216
98 | COc1cc(OCc2ccccn2)ccc1/C=C/c1cc(/C=C/c2ccc3ccn(C)c3c2)[nH]n1 | 172 to 174
99 | Cc1cccc2c1NC(C(Cl)(Cl)Cl)OC2 (stereo unspecified) | 69 to 70
100 | NC(CC(=O)c1ccc(N2CCN(c3ccncc3)CC2)cc1)C(=O)O (stereo unspecified) | 263 to 264
101 | CC(O)=C(C#N)C(=O)Nc1cccc(Cl)c1 | 184 to 187
